This is an account of results in ChEMBL document CHEMBL5550083, “Structural optimization of a lysine demethylase 5 inhibitor for improvement of its cellular activity” (Bioorg Med Chem, 2024).

The target in data set [1] is T1, Lysine-specific demethylase 5B (Homo sapiens, UniProt Q9UGL1). The data set is described as follows: Inhibition of KDM5B (unknown origin) at 10 nM incubated for 2 hrs by Alphascreen assay.
For data set [2], the target named is T1, Lysine-specific demethylase 5B. The data set is described as follows: Inhibition of KDM5B (unknown origin) incubated for 2 hrs by Alphascreen assay.
Data set [3] in a line: Apparent permeability of the compound at 100 uM incubated for 4 hrs by PAMPA assay. The format is ADME. In general terms: The PAMPA barrier holds no transporters, so it reflects passive diffusion.
Data set [4] deals with T2, Lysine-specific demethylase 4A (Homo sapiens, UniProt O75164).
T2 sequence (O75164 whole entry): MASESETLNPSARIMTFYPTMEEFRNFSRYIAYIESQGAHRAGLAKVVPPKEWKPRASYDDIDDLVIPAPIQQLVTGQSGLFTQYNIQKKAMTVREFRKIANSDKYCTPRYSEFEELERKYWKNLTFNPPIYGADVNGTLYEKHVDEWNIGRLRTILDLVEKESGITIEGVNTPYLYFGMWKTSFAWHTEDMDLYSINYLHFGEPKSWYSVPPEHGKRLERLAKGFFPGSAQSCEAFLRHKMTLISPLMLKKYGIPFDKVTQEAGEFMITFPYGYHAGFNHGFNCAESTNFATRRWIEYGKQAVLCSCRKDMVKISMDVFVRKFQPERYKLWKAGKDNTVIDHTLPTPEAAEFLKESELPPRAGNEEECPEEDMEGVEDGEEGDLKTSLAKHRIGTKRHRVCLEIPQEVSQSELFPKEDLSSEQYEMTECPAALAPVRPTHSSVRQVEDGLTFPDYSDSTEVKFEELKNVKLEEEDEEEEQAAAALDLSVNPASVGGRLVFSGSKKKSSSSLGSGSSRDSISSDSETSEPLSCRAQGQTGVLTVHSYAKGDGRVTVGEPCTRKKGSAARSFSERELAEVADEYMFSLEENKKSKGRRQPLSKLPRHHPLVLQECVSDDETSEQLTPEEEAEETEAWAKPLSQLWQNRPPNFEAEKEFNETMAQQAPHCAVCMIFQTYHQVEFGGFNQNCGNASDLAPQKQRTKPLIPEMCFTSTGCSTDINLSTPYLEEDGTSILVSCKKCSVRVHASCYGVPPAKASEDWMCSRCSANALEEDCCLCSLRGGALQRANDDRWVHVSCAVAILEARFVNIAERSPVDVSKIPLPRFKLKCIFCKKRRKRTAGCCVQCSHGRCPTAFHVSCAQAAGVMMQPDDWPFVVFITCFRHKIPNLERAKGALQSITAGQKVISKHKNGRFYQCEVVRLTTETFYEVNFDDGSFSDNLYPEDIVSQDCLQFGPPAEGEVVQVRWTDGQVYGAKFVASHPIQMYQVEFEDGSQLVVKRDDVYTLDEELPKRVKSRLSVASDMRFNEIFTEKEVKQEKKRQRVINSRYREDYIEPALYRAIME
Kind of data set: Inhibition of KDM4A (unknown origin) incubated for 2 hrs by Alphascreen assay.

Data set [5] addresses T3, Lysine-specific demethylase 3A (Homo sapiens, UniProt Q9Y4C1).
T3 sequence (Q9Y4C1 whole entry): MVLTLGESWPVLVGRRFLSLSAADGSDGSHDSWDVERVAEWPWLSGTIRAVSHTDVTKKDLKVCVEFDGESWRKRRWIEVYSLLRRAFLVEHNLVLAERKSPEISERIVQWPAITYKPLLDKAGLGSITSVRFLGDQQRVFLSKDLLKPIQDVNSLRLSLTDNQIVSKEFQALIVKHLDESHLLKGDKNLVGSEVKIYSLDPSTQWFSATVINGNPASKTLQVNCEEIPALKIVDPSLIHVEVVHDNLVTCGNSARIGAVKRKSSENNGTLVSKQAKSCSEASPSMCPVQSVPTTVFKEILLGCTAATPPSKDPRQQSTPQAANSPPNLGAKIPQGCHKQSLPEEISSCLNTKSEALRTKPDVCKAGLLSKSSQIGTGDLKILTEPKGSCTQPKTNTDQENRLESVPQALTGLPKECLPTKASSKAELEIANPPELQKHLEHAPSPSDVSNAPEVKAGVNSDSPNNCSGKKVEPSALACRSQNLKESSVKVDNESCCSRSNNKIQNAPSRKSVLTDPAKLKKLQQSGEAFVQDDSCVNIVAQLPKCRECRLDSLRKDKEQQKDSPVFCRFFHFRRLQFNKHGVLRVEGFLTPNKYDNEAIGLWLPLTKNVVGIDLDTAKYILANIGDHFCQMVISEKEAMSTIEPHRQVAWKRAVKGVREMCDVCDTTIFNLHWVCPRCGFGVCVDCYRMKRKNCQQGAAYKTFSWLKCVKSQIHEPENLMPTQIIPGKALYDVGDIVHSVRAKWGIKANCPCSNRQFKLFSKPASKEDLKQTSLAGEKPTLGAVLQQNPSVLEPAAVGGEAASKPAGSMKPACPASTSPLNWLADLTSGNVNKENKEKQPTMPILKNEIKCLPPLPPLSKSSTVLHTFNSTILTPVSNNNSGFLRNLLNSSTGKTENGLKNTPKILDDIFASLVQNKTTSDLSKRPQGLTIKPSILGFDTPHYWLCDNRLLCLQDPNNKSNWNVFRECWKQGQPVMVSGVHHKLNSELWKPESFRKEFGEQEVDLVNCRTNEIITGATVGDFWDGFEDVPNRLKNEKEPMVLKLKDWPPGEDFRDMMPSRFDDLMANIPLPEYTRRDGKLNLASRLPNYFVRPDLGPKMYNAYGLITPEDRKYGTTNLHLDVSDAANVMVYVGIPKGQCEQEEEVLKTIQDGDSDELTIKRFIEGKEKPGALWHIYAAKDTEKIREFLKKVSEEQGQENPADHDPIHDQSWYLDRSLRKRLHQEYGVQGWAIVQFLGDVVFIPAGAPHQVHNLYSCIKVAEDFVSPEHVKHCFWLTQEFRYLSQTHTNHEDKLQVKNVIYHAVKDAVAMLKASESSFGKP
Kind of data set: Inhibition of KDM3A (unknown origin) incubated for 2 hrs by Alphascreen assay. On the technique in general: In Alpha technology, singlet oxygen from a donor bead excites a nearby acceptor bead.

Data set [6] concerns the target Lysine-specific demethylase 5A (Homo sapiens, UniProt P29375). The data set is described as follows: Inhibition of KDM5A (unknown origin) incubated for 2 hrs by Alphascreen assay.
Data set [7] has as its target Lysine-specific demethylase 6B (Homo sapiens, UniProt O15054). The data set is described as follows: Inhibition of KDM6B (unknown origin) incubated for 2 hrs by Alphascreen assay.
The target of data set [8] is Lysine-specific demethylase 5C (Homo sapiens, UniProt P41229). The data set is described as follows: Inhibition of KDM5C (unknown origin) incubated for 2 hrs by Alphascreen assay.
A short description of data set [9]: Lipophilicity, log D of the compound in PBS at 100 uM at pH 7.4 incubated for 20 mins by UPLC analysis. The format is physicochemical.
The test system of data set [10] is A549. The data set is described as follows: Inhibition of KDM6 in human A549 cells assessed as increase in H3K27me3 level at 100 to 400 nM incubated for 18 hrs by Western blot analysis. The conditions noted are these: dose 100-400 nM. In kind it is cell-based. (Immunoblotting shows a protein as a band on a membrane.)
Data set [11] relates to A549. The data set is described as follows: Inhibition of KDM5 in human A549 cells assessed as increase in H3K4me3 level incubated for 18 hrs by Western blot analysis. The format is cell-based. The conditions noted are these: dose 100-400 nM.
Data set [12] relates to A549. The data set is described as follows: Inhibition of KDM5 in human A549 cells assessed as increase in H3K4me3 level at 400 nM by Western blot analysis. In kind it is cell-based. The conditions noted are these: time 1-18 hrs, TDE = time-dependent effect.
The subject of data set [13] is A549. Kind of data set: Inhibition of KDM5 in human A549 cells assessed as increase in H3K4me3 level at 400 nM incubated for 18 hrs by Western blot analysis. The format is cell-based.
Data set [14] has as its system A549. Kind of data set: Inhibition of KDM4 in human A549 cells assessed as increase in H3K9me3 level at 100 to 400 nM incubated for 18 hrs by Western blot analysis. In kind it is cell-based. The conditions noted are these: dose 100-400 nM.

Molecules are shown by their SMILES. pIC50: −log10 of the molar value. Activity calls are given as the source filed them. The rule behind the calls is not given here.

T1 sequence (Q9UGL1 whole entry): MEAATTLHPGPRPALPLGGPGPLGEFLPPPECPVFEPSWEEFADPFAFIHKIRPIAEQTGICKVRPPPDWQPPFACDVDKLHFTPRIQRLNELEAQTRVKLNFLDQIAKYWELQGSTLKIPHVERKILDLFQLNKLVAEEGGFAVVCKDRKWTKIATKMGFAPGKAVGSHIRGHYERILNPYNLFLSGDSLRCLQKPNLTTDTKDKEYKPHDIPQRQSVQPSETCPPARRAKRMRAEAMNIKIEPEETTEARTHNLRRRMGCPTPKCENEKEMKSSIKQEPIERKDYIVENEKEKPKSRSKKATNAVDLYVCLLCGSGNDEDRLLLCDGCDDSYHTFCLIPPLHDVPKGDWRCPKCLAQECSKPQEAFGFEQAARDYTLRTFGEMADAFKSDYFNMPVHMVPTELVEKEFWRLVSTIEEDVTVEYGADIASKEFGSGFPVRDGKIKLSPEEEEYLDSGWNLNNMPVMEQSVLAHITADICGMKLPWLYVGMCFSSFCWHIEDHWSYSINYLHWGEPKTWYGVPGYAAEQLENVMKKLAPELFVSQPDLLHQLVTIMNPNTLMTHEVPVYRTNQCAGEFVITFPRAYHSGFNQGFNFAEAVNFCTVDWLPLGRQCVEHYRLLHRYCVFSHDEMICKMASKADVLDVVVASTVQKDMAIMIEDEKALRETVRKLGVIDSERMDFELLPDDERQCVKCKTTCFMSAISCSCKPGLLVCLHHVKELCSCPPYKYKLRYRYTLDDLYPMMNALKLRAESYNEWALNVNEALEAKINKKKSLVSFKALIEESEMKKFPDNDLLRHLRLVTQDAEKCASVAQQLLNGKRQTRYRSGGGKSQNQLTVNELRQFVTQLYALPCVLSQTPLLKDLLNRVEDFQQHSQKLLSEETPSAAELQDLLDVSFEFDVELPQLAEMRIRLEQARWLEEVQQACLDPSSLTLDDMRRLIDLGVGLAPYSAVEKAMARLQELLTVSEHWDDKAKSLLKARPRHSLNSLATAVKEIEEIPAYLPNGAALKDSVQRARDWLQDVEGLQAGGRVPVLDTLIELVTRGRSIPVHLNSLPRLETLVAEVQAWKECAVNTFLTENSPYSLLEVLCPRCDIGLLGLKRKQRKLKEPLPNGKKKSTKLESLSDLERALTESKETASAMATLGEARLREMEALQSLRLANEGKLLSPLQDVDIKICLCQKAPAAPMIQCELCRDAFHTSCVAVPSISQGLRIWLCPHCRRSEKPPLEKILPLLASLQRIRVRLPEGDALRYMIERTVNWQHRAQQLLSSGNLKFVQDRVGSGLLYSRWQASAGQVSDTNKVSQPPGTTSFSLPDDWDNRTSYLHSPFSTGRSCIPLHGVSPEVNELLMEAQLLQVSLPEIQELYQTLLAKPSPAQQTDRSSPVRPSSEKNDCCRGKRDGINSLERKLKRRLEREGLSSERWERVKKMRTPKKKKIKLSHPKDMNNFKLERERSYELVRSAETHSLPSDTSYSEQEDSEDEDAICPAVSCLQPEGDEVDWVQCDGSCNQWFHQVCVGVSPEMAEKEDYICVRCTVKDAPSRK
Chain of Lysine-specific demethylase 5A (P29375 whole entry): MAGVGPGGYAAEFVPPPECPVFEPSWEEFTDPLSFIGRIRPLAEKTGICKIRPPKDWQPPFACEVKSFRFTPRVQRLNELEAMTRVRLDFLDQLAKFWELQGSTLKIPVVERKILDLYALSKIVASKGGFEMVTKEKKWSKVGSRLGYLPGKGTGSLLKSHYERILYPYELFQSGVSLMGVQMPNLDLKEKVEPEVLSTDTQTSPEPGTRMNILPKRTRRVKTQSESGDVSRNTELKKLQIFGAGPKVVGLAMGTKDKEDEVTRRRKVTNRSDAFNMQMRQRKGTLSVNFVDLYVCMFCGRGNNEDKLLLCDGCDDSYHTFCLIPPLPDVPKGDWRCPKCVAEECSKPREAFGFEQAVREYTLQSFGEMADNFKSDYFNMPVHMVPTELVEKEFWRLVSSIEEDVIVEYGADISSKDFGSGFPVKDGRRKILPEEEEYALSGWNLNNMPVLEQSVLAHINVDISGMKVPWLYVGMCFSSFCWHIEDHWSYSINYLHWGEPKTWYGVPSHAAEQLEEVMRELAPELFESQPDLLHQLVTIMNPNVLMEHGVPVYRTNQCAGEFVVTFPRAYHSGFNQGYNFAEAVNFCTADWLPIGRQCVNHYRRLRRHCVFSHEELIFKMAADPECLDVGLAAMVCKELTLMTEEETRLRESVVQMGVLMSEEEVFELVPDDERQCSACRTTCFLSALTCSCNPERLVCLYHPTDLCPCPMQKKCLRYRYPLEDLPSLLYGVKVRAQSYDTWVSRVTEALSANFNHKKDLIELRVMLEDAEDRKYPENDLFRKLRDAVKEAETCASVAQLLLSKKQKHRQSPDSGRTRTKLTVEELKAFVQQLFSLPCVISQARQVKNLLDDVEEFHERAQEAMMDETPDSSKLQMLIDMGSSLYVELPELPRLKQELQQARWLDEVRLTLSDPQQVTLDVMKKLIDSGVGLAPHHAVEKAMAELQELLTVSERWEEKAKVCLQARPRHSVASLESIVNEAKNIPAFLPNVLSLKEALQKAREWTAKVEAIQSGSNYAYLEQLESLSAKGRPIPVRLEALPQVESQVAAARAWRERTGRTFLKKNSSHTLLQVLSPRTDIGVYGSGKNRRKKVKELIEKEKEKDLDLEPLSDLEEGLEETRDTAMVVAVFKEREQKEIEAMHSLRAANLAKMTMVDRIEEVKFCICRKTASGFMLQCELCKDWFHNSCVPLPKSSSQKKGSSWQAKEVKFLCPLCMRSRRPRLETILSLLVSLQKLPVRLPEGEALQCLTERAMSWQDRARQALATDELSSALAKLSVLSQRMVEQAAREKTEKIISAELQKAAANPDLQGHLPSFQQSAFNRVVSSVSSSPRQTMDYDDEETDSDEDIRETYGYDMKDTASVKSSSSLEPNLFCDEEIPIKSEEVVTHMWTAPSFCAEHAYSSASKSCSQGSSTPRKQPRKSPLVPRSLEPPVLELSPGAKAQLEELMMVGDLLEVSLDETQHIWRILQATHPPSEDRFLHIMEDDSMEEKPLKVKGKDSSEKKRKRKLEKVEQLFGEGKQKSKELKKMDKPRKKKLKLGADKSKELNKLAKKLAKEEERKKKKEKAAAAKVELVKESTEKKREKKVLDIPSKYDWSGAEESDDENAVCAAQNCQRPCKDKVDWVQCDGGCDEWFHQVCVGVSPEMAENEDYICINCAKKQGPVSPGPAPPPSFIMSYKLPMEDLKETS
Chain of Lysine-specific demethylase 6B (O15054 whole entry): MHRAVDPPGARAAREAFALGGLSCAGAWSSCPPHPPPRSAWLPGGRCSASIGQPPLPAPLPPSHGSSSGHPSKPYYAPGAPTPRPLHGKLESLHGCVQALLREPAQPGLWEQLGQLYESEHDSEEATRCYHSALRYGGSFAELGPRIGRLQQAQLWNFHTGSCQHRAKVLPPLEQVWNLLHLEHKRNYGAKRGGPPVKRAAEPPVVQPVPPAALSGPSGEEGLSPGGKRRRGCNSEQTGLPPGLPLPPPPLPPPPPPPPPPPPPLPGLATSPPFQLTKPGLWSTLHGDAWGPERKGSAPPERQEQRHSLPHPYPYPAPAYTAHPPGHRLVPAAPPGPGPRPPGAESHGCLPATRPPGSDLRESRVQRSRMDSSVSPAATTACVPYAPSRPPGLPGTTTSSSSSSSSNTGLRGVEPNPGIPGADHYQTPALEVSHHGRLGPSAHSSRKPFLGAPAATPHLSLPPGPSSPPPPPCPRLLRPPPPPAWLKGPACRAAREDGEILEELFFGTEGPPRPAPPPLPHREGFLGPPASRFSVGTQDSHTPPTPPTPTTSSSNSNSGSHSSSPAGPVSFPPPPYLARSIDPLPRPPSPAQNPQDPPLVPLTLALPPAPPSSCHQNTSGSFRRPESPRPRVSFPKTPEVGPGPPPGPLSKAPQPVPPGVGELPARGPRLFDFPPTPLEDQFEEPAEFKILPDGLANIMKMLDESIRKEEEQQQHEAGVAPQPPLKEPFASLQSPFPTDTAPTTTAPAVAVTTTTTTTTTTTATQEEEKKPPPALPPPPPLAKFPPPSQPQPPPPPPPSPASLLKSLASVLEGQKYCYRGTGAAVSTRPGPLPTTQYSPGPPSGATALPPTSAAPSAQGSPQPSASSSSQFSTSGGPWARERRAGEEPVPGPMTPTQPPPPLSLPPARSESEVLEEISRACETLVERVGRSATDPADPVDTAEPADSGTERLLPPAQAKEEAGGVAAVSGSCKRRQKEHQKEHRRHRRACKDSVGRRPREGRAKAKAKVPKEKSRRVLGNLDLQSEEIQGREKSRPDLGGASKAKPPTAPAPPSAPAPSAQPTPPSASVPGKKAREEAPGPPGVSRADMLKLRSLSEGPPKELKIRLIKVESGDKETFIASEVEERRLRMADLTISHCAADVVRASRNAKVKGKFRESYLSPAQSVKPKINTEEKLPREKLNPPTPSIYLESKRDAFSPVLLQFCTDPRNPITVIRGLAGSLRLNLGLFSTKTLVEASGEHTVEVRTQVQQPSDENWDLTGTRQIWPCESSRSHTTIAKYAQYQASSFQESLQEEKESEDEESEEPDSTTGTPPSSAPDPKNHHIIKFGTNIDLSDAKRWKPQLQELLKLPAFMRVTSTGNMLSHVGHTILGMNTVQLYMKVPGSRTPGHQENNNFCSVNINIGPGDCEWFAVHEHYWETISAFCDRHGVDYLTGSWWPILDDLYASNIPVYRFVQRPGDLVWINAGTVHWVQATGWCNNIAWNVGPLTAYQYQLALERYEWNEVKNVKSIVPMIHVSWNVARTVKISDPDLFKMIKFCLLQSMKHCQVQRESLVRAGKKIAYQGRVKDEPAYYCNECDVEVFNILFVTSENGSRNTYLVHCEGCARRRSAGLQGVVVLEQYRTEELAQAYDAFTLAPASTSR

Regarding `CCN(CCN(C(C)C)C(C)C)C(=O)CNCc1cc(C(=O)O)ccn1`, in [1], the inhibition activity call was “Active”.

For `CCCN(C)CCN(CC)C(=O)CNCc1cc(C(=O)O)ccn1`, the inhibition activity call in [1] was “Active”. Besides, the pIC50 (commonly the negative decadic logarithm of the IC50, by convention in mol/L) in data set [2] was 8.20.

Turning to `CCN(CCN(C)Cc1ccccc1)C(=O)CNCc1cc(C(=O)O)ccn1`, in data set [1], the inhibition activity call is “Active”. Besides, the negative-log IC50 (pIC50) in [2] was 8.07.

With `CC(C)NCC(O)COc1cccc2ccccc12` (stereo not given) [PROPRANOLOL], the Papp (in general, the rate of passage across a membrane or cell layer, normalised by area and donor concentration) at 4 h, 100 µM in [3] is 3.9 ×10⁻⁶ cm/s.

`CCCN(CCC)CCN(CC)C(=O)CNCc1cc(C(=O)O)ccn1`: the inhibition activity call in [1] was “Active”.

On to `CCN(CC)CCN(CC)C(=O)CNCc1cc(C(=O)O)ccn1`, for which the inhibition activity call in data set [1] is “Active”.

On to `CCCCN(C)CCN(CC)C(=O)CNCc1cc(C(=O)O)ccn1`, for which the pIC50 in [4] is 6.41; in data set [5], less than 4.30; in data set [6], 8.91; in data set [7], less than 5.30; in data set [8], 7.87.

As to `CCN(C)CCN(CC)C(=O)CNCc1cc(C(=O)O)ccn1`, in data set [1], the inhibition activity call was “Active”. In data set [2], this compound had a pIC50 of 8.16.

Take `CCN(CCN(Cc1ccccc1)Cc1ccccc1)C(=O)CNCc1cc(C(=O)O)ccn1`: in data set [1], the inhibition activity call is “Active”.

Turning to `CCOC(=O)c1ccnc(CNCC(=O)N(CC)CCN(C)C)c1`, the log distribution coefficient (logD) – broadly, lipophilicity at a set pH, counting ionised and neutral species – at 20 min, 100 µM in data set [9] was 1.5. This compound also had a pIC50 in data set [2] of 6.68. Besides, in data set [3], the Papp at 4 h, 100 µM was 0.1 ×10⁻⁶ cm/s.

With `CCN(CCN(C)C(C)C)C(=O)CNCc1cc(C(=O)O)ccn1`, in data set [1], the inhibition activity call is “Active”. In data set [2], the pIC50 was 8.52.

`CCN(CCN(C)C)C(=O)CNCc1cc(C(=O)O)ccn1`: the pIC50 in data set [4] is 6.76; in data set [5] it was less than 4.30; in data set [6] it was 8.85; in data set [7] it was less than 5.30; in [8], 8.00; in data set [2] it was 8.65.

Regarding `CCCCN(C)CCN(CC)C(=O)CNCc1cc(C(=O)OCC)ccn1`, the inhibition result in the data set with A549 [10] and with A549 [14] was “inactive” in each case. For the same compound, the inhibition entry in the data set with A549 [11] was “Dose-Dependent Effect”; in the data set on A549 [12], “Tde”. The inhibition result in the data set with A549 [13] is “Active”. In data set [9], this compound came in with a logD at 20 min, 100 µM of 2.2. Further, the apparent permeability coefficient (Papp) at 4 h, 100 µM in [3] is 0.6 ×10⁻⁶ cm/s.

Consider `CCCCN(CCCC)CCN(CC)C(=O)CNCc1cc(C(=O)O)ccn1`, for which the inhibition activity call in data set [1] is “Active”.
